Test results: PubChem BioAssay AID179 (DTP/NCI, 2004)
Active and inactive are the calls of the source.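 The calls were made as follows: active = compounds giving half or more protection of infected cells from virus-caused growth loss, again on retest; inactive = the rest.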

Tested on: CEM cells HIV-1 protection, formazan growth assay
Test: NCI AIDS Antiviral Assay
Settings: for IC50: measured here: growth of uninfected CEM cells
Procedure, shortened: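 Protection of CEM cells against HIV-1 was scored from cell growth (soluble formazan) across five concentrations, with parallel uninfected cells. Lack of protection may reflect toxicity.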

Row | Structure (SMILES) | outcome | EC50 | IC50
1 | CCC/C=C/C=C\C(=O)O[C@@H]1[C@@H](C)[C@]2(O)[C@@H]3C=C(C)C(=O)[C@H]3CC(COC(C)=O)=C[C@H]2[C@@H]2C(C)(C)[C@]12OC(C)=O | inactive | – | –
2 | CC(C)CCCC(C)[C@H]1CCC2[C@@H]3CCC4Nc5nocc5C[C@]4(C)C3CC[C@@]21C (some centres not stated) | inactive | – | –
3 | Cc1ccccc1N=CN(C)C | – | > 200 µM | 42.7 µM
4 | COc1cc2cc(C(=O)N3CC(CCl)c4c3cc([N+](C)(C)Cc3ccc([N+](=O)[O-])n3C)c3ccccc43)[nH]c2c(OC)c1OC (configuration not stated) | – | > 2 µM | 1.26 µM
5 | O=C1CN(CCN2CCOCC2)CC(=O)N2Cc3ccccc3CN12 | – | > 200 µM | > 200 µM
6 | O=C1c2ccncc2C(=O)c2c(O)ccc(O)c21 | – | > 6.03 µM | 3.24 µM
7 | NC(=O)C(=O)N/N=C1/c2ccccc2CC1C1(O)C(=O)Nc2c(Cl)cc(Cl)cc21 (configuration not stated) | – | > 12 µM | > 12 µM
8 | CC(=O)OC1C[N+]2(CCc3ccccc3)CCC1CC2 (configuration not stated) | – | > 708 µM | > 708 µM
9 | Clc1ccc(N=c2ccc3ccccc3[oH+]2)cc1.Clc1ccc(N=c2ccc3ccccc3[oH+]2)cc1.[Co] | inactive | – | –
10 | CC(C(=O)N1C(=O)N(C(=O)C(C)C(O)c2ccccc2)C(c2ccccc2)C1c1ccccc1)C(O)c1ccccc1 (configuration not stated) | – | > 200 µM | 28.2 µM
11 | Oc1ccc(Cc2nc3ccccc3[nH]2)cc1 | – | > 200 µM | > 200 µM
12 | COC(=O)c1cc(C(=O)O)c(=O)n2ccccc12 | – | > 200 µM | 174 µM
13 | C[N+]1(C)C/C(=C\C=C\c2ccccc2)C(=O)/C(=C/C=C/c2ccccc2)C1 | – | > 7.76 µM | > 7.76 µM
14 | Clc1cccc(Cl)c1C1SCc2nc3cc4ccccc4cc3n21 (configuration not stated) | – | > 200 µM | > 200 µM
15 | O=C=NCCCCCCN1C(=O)N2C(c3ccccc3)N(CCCCCCN=C=O)C(=O)N2C1c1ccccc1 (configuration not stated) | inactive | – | –
16 | NC(=O)N/N=C(\Cc1nc2ccc(C(=O)c3ccccc3)cc2[nH]c1=O)C(=O)Nc1ccc(Br)cc1 | inactive | – | –
17 | C=C(C)[C@@H]1CC[C@]2(COC(=O)CC3(CC(=O)O)CCCC3)CC[C@]3(C)[C@H](CC[C@@H]4[C@@]5(C)CC[C@H](OC(=O)CC6(CC(=O)O)CCCC6)C(C)(C)[C@@H]5CC[C@]43C)[C@@H]12 | – | > 200 µM | 5.89 µM
18 | CC(=S)NC=C(C(N)=O)C(N)=O | – | > 200 µM | > 200 µM
19 | O=C(c1cc2c(C(F)(F)F)onc2c2ccccc12)C(F)(F)F | – | > 107 µM | 8.32 µM
20 | O=[N+]([O-])c1ccc(-c2cn3nc(-c4ccccc4)c(-c4ccccc4)nc3n2)cc1 | – | > 13.2 µM | > 13.2 µM
21 | CC1(C)OC(=O)CC2(C)OC12 (configuration not stated) | – | > 200 µM | > 200 µM

Row | Structure (SMILES) | outcome | EC50 | IC50
22 | Cc1ccc(-c2nnc(CCCCCCCCc3nnc(-c4ccc(C)cc4O)n3N)n2N)c(O)c1 | – | > 200 µM | 120 µM
23 | CC(=O)c1sc2c(c1OC(=O)c1ccc(Cl)cc1)c(=O)n(-c1ccccc1)c(=S)n2-c1ccccc1 | – | > 200 µM | 0.776 µM
24 | Cc1ccc(NCC(=O)N2CC(=O)Nc3ccccc32)cc1 | – | > 123 µM | > 123 µM
25 | CC1(C)OCC2OC3([C@H](O)CCO)OC(C)(C)OC3C2O1 (some centres not stated) | – | > 200 µM | > 200 µM
26 | C=CC(=O)Nc1ccccc1CC(c1c[nH]c2ccccc12)c1c[nH]c2ccccc12 | – | > 36.3 µM | 25.7 µM
27 | O=CNNC(=O)Nc1ccc(Cl)cc1 | – | > 200 µM | > 200 µM
28 | Cc1cc(O)c(/C=N/c2nc(-c3ccc([N+](=O)[O-])cc3)cs2)c(=O)o1 | – | > 200 µM | > 200 µM
29 | CCOC(C)C(=O)OC[C@@H](C(=O)OC1C[C@@H]2[C@@H]3O[C@@H]3[C@H](C1)[N+]2(C)C)c1ccccc1 (some centres not stated) | – | > 200 µM | > 200 µM
30 | O=C1C=CC2C3C(=O)N(c4ccccc4)C(=O)C3C1N2Cc1ccccc1 (configuration not stated) | – | > 1.17 µM | > 1.17 µM
31 | O=C1CC(c2ccccc2)C(c2ccccc2)C1=O (configuration not stated) | – | > 129 µM | 52.5 µM
32 | COc1ccc(OC)c(NCC(=O)Nn2cnc3ccc(S(=O)(=O)Nc4cc(OC)ccc4OC)cc3c2=O)c1 | – | > 200 µM | 33.9 µM
33 | COc1ccc(N=NC(=O)NC(CC(C)C)C(=O)NCC(=O)O)cc1 (configuration not stated) | – | > 200 µM | 3.72 µM
34 | Nc1ccc2c(C(F)(F)F)cc(=O)oc2c1 | – | > 22.9 µM | > 22.9 µM
35 | C#CCOCC12C=CC(O1)C1COC(=O)C12 (configuration not stated) | – | > 200 µM | > 200 µM
36 | CCOC(=O)NN1C(=O)c2cccc3c([N+](=O)[O-])ccc(c23)C1=O | – | > 2 µM | 0.224 µM
37 | COC/N=C(/N)NC#N | – | > 692 µM | > 692 µM
38 | N#CCCC1(CCC#N)CCCCCCCCC(CCC#N)(CCC#N)C(=O)C1=O | – | > 200 µM | > 200 µM
39 | Nc1ccc(C(=O)NN2C(=O)C(Cl)C2c2cccc(O)c2)cc1 (configuration not stated) | – | > 200 µM | 9.55 µM
40 | COC1(C)CC2N(C(=O)c3ccccc3)N=C(c3ccccc3)CC2(C)O1 (configuration not stated) | – | > 100 µM | > 100 µM
41 | C/C=C(/CCCCCOCOCCOC)[Si](C)(C)C | – | > 324 µM | > 324 µM
